Test results as given in publication PMC5357154 (Cell chemical biology, 2017).
Values belong to the compound of their own block, whether it stands above or below them.

Experiments:
caspase-3 [1] = target: T1, caspase-3 (Homo sapiens, UniProt P42574); test: Caspase catalytic activity IC50 determination, caspase-3; type: biochemical; conditions: 200 nM enzyme, 3.3 μM DEVD substrate, tested 26.1 nM to 66 μM
T1 sequence (P42574 29-175 limits assumed): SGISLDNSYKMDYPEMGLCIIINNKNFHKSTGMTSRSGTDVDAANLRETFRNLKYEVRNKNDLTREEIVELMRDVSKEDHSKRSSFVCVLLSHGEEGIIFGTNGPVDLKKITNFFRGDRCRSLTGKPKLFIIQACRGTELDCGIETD
T1 sequence (P42574 176-277 limits assumed): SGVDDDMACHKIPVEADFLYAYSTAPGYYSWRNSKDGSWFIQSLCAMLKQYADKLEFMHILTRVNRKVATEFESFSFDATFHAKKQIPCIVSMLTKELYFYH

[2] = tested on: caspases in HeLa and THP-1 cells; test: Caspase inhibition across cell culture assays; type: cell-based, human; conditions: NSAIDs up to 500 μM
caspase-4 = target: T2, caspase-4 (Homo sapiens, UniProt P49662); test: Caspase catalytic activity IC50 determination, caspase-4; type: biochemical; conditions: 1 nM enzyme, 10 μM LEHD substrate, tested 26.1 nM to 66 μM
T2 sequence (P49662 81-270 limits assumed): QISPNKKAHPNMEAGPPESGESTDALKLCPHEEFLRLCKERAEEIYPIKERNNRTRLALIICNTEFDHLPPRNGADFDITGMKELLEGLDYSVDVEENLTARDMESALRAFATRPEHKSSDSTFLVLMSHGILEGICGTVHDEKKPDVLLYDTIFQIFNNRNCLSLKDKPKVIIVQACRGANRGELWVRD
T2 sequence (P49662 290-377 limits assumed): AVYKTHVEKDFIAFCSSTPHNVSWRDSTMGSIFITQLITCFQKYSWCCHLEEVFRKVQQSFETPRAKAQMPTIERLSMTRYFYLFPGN

caspase-5 = target: T3, caspase-5 (Homo sapiens, UniProt P51878); test: Caspase catalytic activity IC50 determination, caspase-5; type: biochemical; conditions: 20 nM enzyme, 10 μM LEHD substrate, tested 26.1 nM to 66 μM
T3 sequence (P51878 137-327 limits assumed): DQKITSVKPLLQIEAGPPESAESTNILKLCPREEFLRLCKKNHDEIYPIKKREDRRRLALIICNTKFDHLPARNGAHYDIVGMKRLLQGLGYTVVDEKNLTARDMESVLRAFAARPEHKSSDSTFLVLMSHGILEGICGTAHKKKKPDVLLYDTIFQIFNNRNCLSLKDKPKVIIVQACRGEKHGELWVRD
T3 sequence (P51878 347-434 limits assumed): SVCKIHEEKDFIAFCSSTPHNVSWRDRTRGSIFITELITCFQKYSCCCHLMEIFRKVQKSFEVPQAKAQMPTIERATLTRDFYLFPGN

caspase-1 = target: T4, caspase-1 (Homo sapiens, UniProt P29466); test: Caspase catalytic activity IC50 determination, caspase-1; type: biochemical; conditions: 2.5 nM enzyme, 6.5 μM WEHD substrate, tested 26.1 nM to 66 μM
T4 sequence (P29466 120-297 limits assumed): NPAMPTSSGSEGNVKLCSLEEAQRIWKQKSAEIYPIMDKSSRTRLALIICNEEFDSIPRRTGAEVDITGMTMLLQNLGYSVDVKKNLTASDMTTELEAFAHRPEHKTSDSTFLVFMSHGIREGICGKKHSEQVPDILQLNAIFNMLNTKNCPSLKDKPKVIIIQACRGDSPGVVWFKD
T4 sequence (P29466 317-404 limits assumed): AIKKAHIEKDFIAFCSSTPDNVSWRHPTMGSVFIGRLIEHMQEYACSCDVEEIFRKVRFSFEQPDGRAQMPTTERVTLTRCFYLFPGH

caspase-3 [3] = target: T1, caspase-3; test: Caspase-3 tryptophan fluorescence quenching; type: binding
caspase-9 = target: T5, caspase-9 (Homo sapiens, UniProt P55211); test: Caspase catalytic activity IC50 determination, caspase-9; type: biochemical; conditions: 200 nM enzyme, 6.5 μM LEHD substrate, tested 26.1 nM to 66 μM
T5 sequence (P55211 1-315 limits assumed): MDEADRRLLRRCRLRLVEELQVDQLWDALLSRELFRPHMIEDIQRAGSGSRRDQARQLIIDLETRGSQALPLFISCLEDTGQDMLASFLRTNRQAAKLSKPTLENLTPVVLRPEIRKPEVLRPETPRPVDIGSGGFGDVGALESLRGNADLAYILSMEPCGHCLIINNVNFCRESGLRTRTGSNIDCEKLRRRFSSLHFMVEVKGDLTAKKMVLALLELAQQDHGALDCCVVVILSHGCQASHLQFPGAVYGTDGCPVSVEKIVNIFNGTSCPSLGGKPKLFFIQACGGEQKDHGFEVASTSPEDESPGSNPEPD
T5 sequence (P55211 331-416 limits assumed): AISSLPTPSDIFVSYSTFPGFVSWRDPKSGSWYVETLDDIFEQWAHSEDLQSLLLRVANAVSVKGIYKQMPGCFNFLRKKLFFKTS

IC50 (caspase-1): No activity
Structure (SMILES): CC(C)Cc1ccc(C(C)C(=O)O)cc1 (stereo not shown) [Ibuprofen]
caspase inhibitory capability, rank order across cellular assays [2]: weak inhibitors

Kd (caspase-3 [3]): 30 ± 2 µM
Structure (SMILES): CC(C(=O)O)c1ccc(N2Cc3ccccc3C2=O)cc1 (stereo not shown) [Indoprofen]
caspase inhibitory capability, rank order across cellular assays [2]: substantial inhibitory capabilities

The remaining lines, values behind:

Structure (SMILES): CC(=O)Oc1ccccc1C(=O)O [Aspirin]
IC50 (caspase-3 [1]): No activity | caspase inhibitory capability, rank order across cellular assays [2]: ineffective | IC50 (caspase-4): No activity | IC50 (caspase-5): No activity | IC50 (caspase-1): No activity | Kd (caspase-3 [3]): 1290 ± 10 µM | IC50 (caspase-9): No activity

Structure (SMILES): COc1ccc2cc([C@H](C)C(=O)O)ccc2c1 [Naproxen]
caspase inhibitory capability, rank order across cellular assays [2]: weak inhibitors

Structure (SMILES): O=C(O)CCC(=O)c1ccc(-c2ccccc2)cc1 [Fenbufen]
caspase inhibitory capability, rank order across cellular assays [2]: substantial inhibitory capabilities
